Assay results published in publication PMC6582257, “Inhibition of Escherichia coli and Bacillus subtilis FtsZ Polymerization and Bacillus subtilis Growth by Dihydroxynaphtyl Aryl Ketones” (Frontiers in Microbiology, 2019).
“And” between values parts separate entries of the source, which are not always exact repeats. Equal entries are not always repeated. Where two headings read alike, the source gives them in different places.

What was measured:
[1] = biological target: T1, EcFtsZ (Escherichia coli, UniProt P0A9A6); assay: GTP induced EcFtsZ polymerization by light scattering (PK/PEP GTP regeneration system); assay type: biochemical
T1 construct: made in house; host or cells: E. coli BL21 (DE3)
T1 sequence (P0A9A6 whole entry): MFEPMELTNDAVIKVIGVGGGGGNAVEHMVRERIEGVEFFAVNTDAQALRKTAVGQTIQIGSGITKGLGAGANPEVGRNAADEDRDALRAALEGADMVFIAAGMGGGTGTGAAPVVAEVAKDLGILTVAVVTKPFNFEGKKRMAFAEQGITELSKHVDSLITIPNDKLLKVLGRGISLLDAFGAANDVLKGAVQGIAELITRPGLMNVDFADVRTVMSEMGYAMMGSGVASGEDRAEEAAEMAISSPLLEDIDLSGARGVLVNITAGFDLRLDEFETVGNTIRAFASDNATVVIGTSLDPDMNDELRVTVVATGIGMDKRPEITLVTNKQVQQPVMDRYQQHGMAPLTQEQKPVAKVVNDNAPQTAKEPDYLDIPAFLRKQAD
Experimental: (§1) Polymerization of FtsZ was determined by light scattering. Light scattering was measured on a Perkin Elmer LS 50 spectrofluorimeter, illuminating with light at a wavelength of 350 nm (excitation) and recording at the same wavelength (emission). Excitation and emission bandwidth were 7 nm and a 4% transmittance filter was used in the emission path. Temperature was kept constant at 30°C.
(§2) Polymerization of FtsZ induced by GTP [with GTP regeneration system PK/PEP (Margalit et al., [2004])] was measured in the absence and the presence of dNAK 4. 12.5 μM FtsZ was pre-incubated in 50 mM HEPES pH 7.3, 50 mM KCl, 10 mM MgCl2, 1% DMSO, and 1 mM PEP. The reaction was started by adding the compound (at the concentration indicated in the figures), 4 units of PK and 1 mM GTP. For each polymerization reaction, a baseline was registered, which corresponds to the light scattering after adding the compound and prior to the induction of polymerization by the addition of GTP and PK.

[2] = tested on: E. coli K12; assay: Growth curves in liquid Müller-Hinton culture, E. coli; assay type: cell-based, Escherichia coli; settings: up to 32 μM, 37°C
Experimental: (§3) Cells were grown in liquid culture medium Müller Hinton (MH) in the presence and absence of the compound. MH medium was inoculated with an overnight culture of each strain and grown until an OD600 of 0.6 was reached. Both cultures were then diluted to OD600 of 0.1 and subsequently divided into several cultures, where the controls (without the compound and with DMSO) and different concentrations of dNAK 4 were tested. Each experimental condition was assayed in 250 μL, six times, in a 96-well ELISA plate. The cultures were grown under agitation at 37°C in a plate spectrofluorimeter with absorbance module model TECAN Infinite M200 PRO and the OD600 was automatically registered every 15 min for 24 h.

[3] = tested on: B. subtilis; assay: Live-cell imaging of cell division in CellASIC ONIX2 microfluidic chambers; assay type: cell-based, Bacillus subtilis; settings: LB with 32 μM perfused 8 h, 37°C
[4] = tested on: Staphylococcus aureus BEM42; assay: Growth inhibition halos on bacterial lawns; assay type: cell-based; parameters: key: −: Absence (-) or presence (+) of growth inhibition halos on different bacterial lawns; Absence (-) or presence (+) of growth inhibition halos on different bacterial lawns; settings: 5 µl, 37°C 5-6 h
Experimental: (§4) TABLE SM1. Effect of dNAK 4 tested directly on the growth of different bacterial […]
(§5) Strains Amount of dNAK 4 in DMSO 30% […]
(§6) Absence (-) or presence (+) of growth inhibition halos on different bacterial lawns.
(§7) The bacterial lawns for each strain listed in this Table were prepared as follow:
(§8) Bacterial cells were grown in Müller-Hinton (MH) media until an OD600 = 0.3. 300 µl of each culture was mixed with 5 ml of MH soft agar and poured into a plate containing 20 ml of MH hard agar. Once cooled, 5 µl of dNAK 4 dissolved in DMSO […]
(§9) the top agar and incubated at 37°C during 5-6 h until growth inhibition halos were […]
(§10) growth inhibition halos in any of the strains tested. As positive control the antibiotic minocycline was used. The experiments were performed by triplicate. The bacterial strains used in these experiments belong to our laboratory collection.

[5] = tested on: B. subtilis; assay: Growth curves in liquid Müller-Hinton culture, B. subtilis; assay type: cell-based, Bacillus subtilis; settings: for effective concentration (total growth arrest): liquid culture
Experimental: as §3

[6] = biological target: T2, BsFtsZ (Bacillus subtilis, UniProt P17865); assay: GTP induced BsFtsZ polymerization by light scattering (PK/PEP GTP regeneration system); assay type: biochemical
T2 construct: made in house; host or cells: E. coli DH10B
T2 sequence (P17865 whole entry): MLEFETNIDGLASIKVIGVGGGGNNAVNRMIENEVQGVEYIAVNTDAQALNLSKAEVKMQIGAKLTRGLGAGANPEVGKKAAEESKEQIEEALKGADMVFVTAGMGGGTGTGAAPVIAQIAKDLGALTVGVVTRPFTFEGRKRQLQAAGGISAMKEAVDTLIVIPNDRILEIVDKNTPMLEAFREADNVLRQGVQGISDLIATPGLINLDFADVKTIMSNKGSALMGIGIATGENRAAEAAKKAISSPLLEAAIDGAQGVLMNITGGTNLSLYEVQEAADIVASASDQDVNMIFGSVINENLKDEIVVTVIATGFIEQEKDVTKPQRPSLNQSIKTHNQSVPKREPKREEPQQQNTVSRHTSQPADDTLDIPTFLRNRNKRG
Experimental: as §1, §2

[7] = tested on: Bacillus subtilis BEM54; assay: Growth inhibition halos on bacterial lawns; assay type: cell-based; parameters: key to growth inhibition halo: −: Absence (-) or presence (+) of growth inhibition halos on different bacterial lawns; Absence (-) or presence (+) of growth inhibition halos on different bacterial lawns; settings: for growth inhibition halo: 5 µl, 37°C 5-6 h
Experimental: as §4, §5, §6, §7, §8, §9, §10

[8] = tested on: Proteus mirabilis BEM87; assay: Growth inhibition halos on bacterial lawns; assay type: cell-based; parameters: key to growth inhibition halo: −: Absence (-) or presence (+) of growth inhibition halos on different bacterial lawns; Absence (-) or presence (+) of growth inhibition halos on different bacterial lawns; settings: for growth inhibition halo: 5 µl, 37°C 5-6 h
Experimental: as §4, §5, §6, §7, §8, §9, §10

[9] = tested on: Pseudomonas aeruginosa BEM12; assay: Growth inhibition halos on bacterial lawns; assay type: cell-based; parameters: key to growth inhibition halo: −: Absence (-) or presence (+) of growth inhibition halos on different bacterial lawns; Absence (-) or presence (+) of growth inhibition halos on different bacterial lawns; settings: for growth inhibition halo: 5 µl, 37°C 5-6 h
Experimental: as §4, §5, §6, §7, §8, §9, §10

[10] = tested on: Enterobacter aerogenes BEM27; assay: Growth inhibition halos on bacterial lawns; assay type: cell-based; parameters: key to growth inhibition halo: −: Absence (-) or presence (+) of growth inhibition halos on different bacterial lawns; Absence (-) or presence (+) of growth inhibition halos on different bacterial lawns; settings: for growth inhibition halo: 5 µl, 37°C 5-6 h
Experimental: as §4, §5, §6, §7, §8, §9, §10

[11] = tested on: Escherichia coli K12; assay: Growth inhibition halos on bacterial lawns; assay type: cell-based; parameters: key to growth inhibition halo: −: Absence (-) or presence (+) of growth inhibition halos on different bacterial lawns; Absence (-) or presence (+) of growth inhibition halos on different bacterial lawns; settings: for growth inhibition halo: 5 µl, 37°C 5-6 h
Experimental: as §4, §5, §6, §7, §8, §9, §10

[12] = biological target: T2, BsFtsZ; assay: GDP induced BsFtsZ polymerization by light scattering; assay type: biochemical; settings: 32 μM compound, 2 mM GDP, 12.5 μM protein
Experimental: as §1
(§11) Polymerization of FtsZ induced by GDP was measured in the absence and the presence of dNAK 4. 12.5 μM FtsZ was pre-incubated in 50 mM HEPES pH 7.3, 50 mM KCl, 10 mM MgCl2, 1% DMSO, and 2 mM GDP. The reaction was started by adding the compound at 32 μM final concentration.

[13] = biological target: tubulin; parameters: method as in Gutiérrez et al., 2015; settings: ref Gutiérrez et al., 2015; cited from earlier work
[14] = tested on: E. coli; assay: Live-cell imaging of cell division in CellASIC ONIX2 microfluidic chambers; assay type: cell-based, Escherichia coli; settings: LB with 32 μM perfused 8 h, 37°C
Experimental: In order to evaluate the effect of dNAK 4 at a cellular level, we designed a live-cell imaging approach using the microfluidics platform CellASIC ONIX2 (Merck) coupled to a Lionheart FX automated microscope (BioTek). This setup allowed us to directly monitor the division of E. coli and B. subtilis cells inside microchambers, under a precisely controlled temperature (37°C) and the continuous perfusion of fresh culture medium. The microscope was set up to take one picture of each chamber every 10 min during the whole experiment (20 h), in order to get a continuous view of the division process occurring in a group of cells and its response to the perfusion of dNAK 4. First, cells of each strain were inoculated into separate microchambers, perfusing LB medium for 4 h while monitoring cell growth. Afterwards, LB supplemented with 32 μM dNAK 4 was perfused during the next 8 h. Finally, LB medium without dNAK 4 was perfused during the last 8 h in order to monitor the effect of washing the compound. […] After washing the compound, some B. subtilis cells seemed to partially recover the ability to divide.
2. Live-cell imaging of E. coli and B. subtilis cell division while grown in microfluidic chambers, in the presence or absence of dNAK 4. […]

[15] = tested on: normal and cancer cell; parameters: method as in Benites et al., 2016; settings: ref Benites et al., 2016; cited from earlier work
[16] = biological target: T1, EcFtsZ; assay: GDP induced EcFtsZ polymerization by light scattering; assay type: biochemical; settings: 32 μM compound, 2 mM GDP, 12.5 μM protein
Experimental: as §1, §11

[17] = calculated from the EcFtsZ polymerization inhibition by the compounds, read-out: IFP (inhibition of EcFtsZ polymerization) expressed as IC50
[18] = at the concentration tested (0.05-2 µg)

O=C(c1cccs1)c1cc(O)c2ccccc2c1O [dNAK 1]
100 µM: IC50 [1, 17]

O=C(c1ccsc1)c1cc(O)c2ccccc2c1O [dNAK 2]
44 µM: IC50 [1, 17]

O=C(c1ccco1)c1cc(O)c2ccccc2c1O [dNAK 3]
39 µM: IC50 [1, 17]

O=C(c1ccc[nH]1)c1cc(O)c2ccccc2c1O [dNAK 4, (1,4-dihydroxy-naphthalen-2-yl)-(1H-pyrrol-2-yl)-methanone]
complete growth arrest: effect on growth of B. subtilis cells [3]
no effect: effect on growth of E. coli cells [14] | effect on normal and cancer cell proliferation [15]
8 µg/mL: effective concentration (total growth arrest) ([5]; conversion of 32 μM)
no growth: B. subtilis growth in liquid culture ([5]; 32 μM, during 16 h, Müller-Hinton, 37°C)
1.02 ± 0.23 µM: Kd [13]
0.3 to 0.5 µg: amount giving growth inhibition in plate assays ([8]; bacterial lawn, P. mirabilis) | amount giving growth inhibition in plate assays ([9]; bacterial lawn, P. aeruginosa)
induced: polymerization of BsFtsZ with GDP [12] | polymerization of EcFtsZ with GDP [16]
9.13 ± 0.66 µM: IC50 [6]
−: growth inhibition halo ([4]; 0.05 µg in DMSO 30%) | growth inhibition halo ([7]; 0.05 µg in DMSO 30%) | growth inhibition halo ([8]; 0.05 µg in DMSO 30%) | growth inhibition halo ([8]; 0.1 µg in DMSO 30%) | growth inhibition halo ([8]; 0.3 µg in DMSO 30%) | growth inhibition halo ([9]; 0.05 µg in DMSO 30%) | growth inhibition halo ([9]; 0.1 µg in DMSO 30%) | growth inhibition halo ([10]; 0.05 µg in DMSO 30%) | growth inhibition halo ([10]; 0.1 µg in DMSO 30%) | growth inhibition halo ([10]; 0.3 µg in DMSO 30%) | growth inhibition halo ([10]; 0.5 µg in DMSO 30%) | growth inhibition halo ([10]; 1 µg in DMSO 30%) | growth inhibition halo ([10]; 2 µg in DMSO 30%) | growth inhibition halo ([11]; 0.05 µg in DMSO 30%) | growth inhibition halo ([11]; 0.1 µg in DMSO 30%) | growth inhibition halo ([11]; 0.3 µg in DMSO 30%) | growth inhibition halo ([11]; 0.5 µg in DMSO 30%) | growth inhibition halo ([11]; 1 µg in DMSO 30%) | growth inhibition halo ([11]; 2 µg in DMSO 30%)
0.1 µg: lowest amount giving growth inhibition in plate assays ([7]; bacterial lawn, B. subtilis)
+: growth inhibition halo ([4]; 0.1 µg in DMSO 30%) | growth inhibition halo ([4]; 0.3 µg in DMSO 30%) | growth inhibition halo ([4]; 0.5 µg in DMSO 30%) | growth inhibition halo ([4]; 1 µg in DMSO 30%) | growth inhibition halo ([4]; 2 µg in DMSO 30%) | growth inhibition halo ([7]; 0.1 µg in DMSO 30%) | growth inhibition halo ([7]; 0.3 µg in DMSO 30%) | growth inhibition halo ([7]; 0.5 µg in DMSO 30%) | growth inhibition halo ([7]; 1 µg in DMSO 30%) | growth inhibition halo ([7]; 2 µg in DMSO 30%) | growth inhibition halo ([8]; 0.5 µg in DMSO 30%) | growth inhibition halo ([8]; 1 µg in DMSO 30%) | growth inhibition halo ([8]; 2 µg in DMSO 30%) | growth inhibition halo ([9]; 0.3 µg in DMSO 30%) | growth inhibition halo ([9]; 0.5 µg in DMSO 30%) | growth inhibition halo ([9]; 1 µg in DMSO 30%) | growth inhibition halo ([9]; 2 µg in DMSO 30%)
4.6 µM and 4.4 µM: IC50 ([1]; from steady-state slope of light scattering increment vs concentration, PK/PEP GTP regeneration system, read-out: IFP expressed as IC50 (converted))
2.3 ± 0.1 µM: IC50 ([1]; from slope of light scattering increment after depolymerization vs concentration, PK/PEP GTP regeneration system, read-out: IFP expressed as IC50 (converted))
32 µM: effective concentration (total growth arrest) [5]
no inhibitory effect: effect on E. coli K12 growth in liquid culture [2] | inhibitory effect in plate assays [10, 18] | inhibitory effect in plate assays [11, 18]

COc1cc(C(=O)c2cc(O)c3ccccc3c2O)cc(OC)c1OC [dNAK 5]
81.5 µM: IC50 [1, 17]

O=C(c1ccc[nH]1)c1cc(O)ccc1O [dPAK 4, (2,5-dihydroxy-phenyl)-(1H-pyrrol-2-yl)-methanone]
no inhibitory effect: inhibitory effect over EcFtsZ polymerization ([1]; 2-64 µM, 1% DMSO) | inhibitory effect over BsFtsZ polymerization ([6]; 2-64 µM, 1% DMSO)
